Test results as given in article PMC4012445, “Spirocyclic Drimanes from the Marine Fungus Stachybotrys sp. Strain MF347” (Marine Drugs, 2014).
Structures can show the parent of a compound that is named as a salt. Where two headings read alike, the source gives them in different places.

Legend:
[1] = test system: Bacillus subtilis (DSM 347); test: Antibiotic activity against Bacillus subtilis; assay type: cell-based; conditions: DSM347, growth inhibition, 0.1–50 µM analyzed twice in duplicates, read-out: IC50, antibiotic activity, B. subtilis
Method: (§1) The antimicrobial activities of 1–13 against the bacterium Bacillus subtilis (DSM 347) and the human pathogenic yeast Candida albicans (DSM 1386) were determined according to Ohlendorf et al., 2012 [26].The bioassays using the clinically relevant bacterial strains Staphylococcus epidermidis (DSM 20044), the methicillin-resistant Staphylococcus aureus (MRSA) (DSM 18827), and Klebsiella pneumoniae DSM 30104 were performed as described by Silber et al., 2013 [27]. S. aureus and K. pneumoniae were investigated in the same manner as S. epidermidis. […] The concentration of the compounds used in the initial bioassays was 100 µM (antibiotic tests), 50 µM (cytotoxic tests), and 10 µM (enzymatic tests), respectively. […] Positive controls were carried out with chloramphenicol (bacteria), nystatin (yeast), clotrimazole (fungi), tamoxifen citrate (cell lines), rolipram (PDE-4B2), huperzine (AchE), and TDZD-8 (GSK-3β).

[2] = test system: Staphylococcus epidermidis (DSM 20044); test: Antibiotic activity against Staphylococcus epidermidis; assay type: cell-based; conditions: DSM20044, growth inhibition, 0.1–50 µM analyzed twice in duplicates, read-out: IC50, antibiotic activity, S. epidermidis
Method: as §1

[3] = test system: methicillin-resistant Staphylococcus aureus (MRSA) (DSM 18827); test: Antibiotic activity against methicillin-resistant Staphylococcus aureus; assay type: cell-based; conditions: read-out: IC50, S. aureus MRSA
Method: as §1

[4] = Cytotoxic activity against NIH-3T3; assay type: cell-based
Method: The concentration of the compounds used in the initial bioassays was 100 µM (antibiotic tests), 50 µM (cytotoxic tests), and 10 µM (enzymatic tests), respectively. […] Positive controls were carried out with chloramphenicol (bacteria), nystatin (yeast), clotrimazole (fungi), tamoxifen citrate (cell lines), rolipram (PDE-4B2), huperzine (AchE), and TDZD-8 (GSK-3β).

[5] = in vitro
[6] = growth inhibition, 0.1–50 µM analyzed twice in duplicates
[7] = NIH-3T3 fibroblast cells, mouse fibroblasts cell line, 0.1–50 µM analyzed twice in duplicates, read-out: IC50, cytotoxic activity, NIH-3T3
[8] = human, HepG2 hepatocellular carcinoma cells

SMILES | IC50 [1] | IC50 [2] | IC50 [3] | IC50 [3, 6] | IC50 [4, 7] | IC50 [5, 8] | IC50 ([4]; mouse fibroblasts cell line, 0.1–50 µM analyzed twice in duplicates, read-out: IC50, cytotoxic activity, NIH-3T3) | IC50 [5] | IC50 ([4]; mouse) | IC50 ([5]; human)
O=C(N[C@H](CO)[C@H](O)c1ccc([N+](=O)[O-])cc1)C(Cl)Cl [Chloramphenicol, chloramphenicol, reference compound] | 1.45 µM | 1.81 µM | 2.46 µM | – | – | – | – | – | – | –
CC1CCC2C(C)(C)C(O)CCC2(C)C12Cc1c(O)cc3c(c1O2)CN(C1OCc2cc(O)c4c(c21)OC1(C4)C(C)CCC2C(C)(C)C(O)CCC21C)C3=O (stereo not shown) [Compound 2, stachyin B] | 1.42 µM | 1.02 µM | – | 1.75 µM | 13 µM | 14.3 µM | – | – | – | –
C[C@H]1CC[C@@H]2C(C)(C)[C@@H](O)[C@H](O)C[C@@]2(C)[C@]12Cc1c(O)cc3c(c1O2)CN(CCCCC(C(=O)O)N1Cc2c(cc(O)c4c2O[C@@]2(C4)[C@@H](C)CC[C@@H]4C(C)(C)[C@@H](O)[C@@H](O)C[C@]42C)C1=O)C3=O (stereo partly shown) [Compound 11, stachybocin B] | 1.77 µM | 4.44 µM | – | 3.94 µM | > 50 µM | > 50 µM | – | – | – | –
C[C@H]1CC[C@@H]2C(C)(C)[C@@H](O)CC[C@@]2(C)[C@]12Cc1c(O)cc3c(c1O2)CN(CCCCC(C(=O)O)N1Cc2c(cc(O)c4c2O[C@@]2(C4)[C@@H](C)CC[C@@H]4C(C)(C)[C@@H](O)CC[C@]42C)C1=O)C3=O (stereo partly shown) [Compound 12, stachybocin A] | 2.03 µM | 2.84 µM | 3.71 µM | – | – | – | > 50 µM | > 50 µM | – | –
CC(C)=CCC/C(C)=C/CC/C(C)=C/Cc1c(O)cc(C)c(C=O)c1O [Compound 13, ilicicolin B] | 1.06 µM | 3.18 µM | – | 0.74 µM | 30 µM | > 50 µM | – | – | – | –
CC/C(=C(\c1ccccc1)c1ccc(OCCN(C)C)cc1)c1ccccc1 [tamoxifen citrate, reference compound] | – | – | – | – | – | – | – | – | 16.4 µM | 17.9 µM
